Active and inactive are the calls of the source. The rule behind the calls is not given here.

In assay [1] the test system is V. cholerae DH231 (ΔcqsS ΔluxS) lux bioluminescence, 6 h. Put plainly: Confirmatory dose response, inducers of lux bioluminescence, V. cholerae DH231 δcqsS δluxS (AID 624281).
Assay in assay [2]: as above
Particulars: V. cholerae DH231 (ΔcqsS ΔluxS) lux bioluminescence, 6 h; at 35 µM (top of the series).

For the compound `O=C(Nc1nnc(-c2ccc3c(c2)OCCO3)o1)C1CCCCC1`, in assay [1], the AC40 is 883 nM.

On to `CCOc1ccc(Nc2ccc3nonc3c2[N+](=O)[O-])cc1`, for which the luminescence activation in assay [2] is -40.9% (inactive).

Consider `Cc1ccc(OCCNC(=O)c2cccc(C)c2)cc1`, for which the luminescence activation in assay [2] is -33.1% (inactive).

`COc1ccccc1NC(=O)COC(=O)c1ccc(C)cc1`: in assay [2], the luminescence activation was 8.61% (inactive).

As for `CCn1nnc(NCc2ccc(C)cc2)n1`, the luminescence activation in assay [2] is 4.08% (inactive).

As for `COc1ccccc1NC(=O)COC(=O)c1oc2ccccc2c1C`, the luminescence activation in assay [2] was -6.24% (inactive).

For `CCC(C)NC(=O)Cc1ccc(-c2ccccc2)cc1` (stereo not given), the luminescence activation in assay [2] is -15.3% (inactive).

`O=C(Cc1ccc(-c2ccccc2)cc1)NC1CCCC1`: the luminescence activation in assay [2] is -8.42% (inactive).

`Cc1c(Cl)cccc1-n1cnc(=O)c2ccccc21`: the luminescence activation in assay [2] is -4.11% (inactive).

Consider `COc1ccccc1NC(=O)COC(=O)c1cc2c(s1)CCC2`, for which the AC40 in assay [1] is > 35000 nM (inactive).

Regarding `Cc1ccc(CC(=O)NC2CCCC2)cc1`, the luminescence activation in assay [2] was 0.807% (inactive).

On to `CCCn1nnnc1NCc1ccc(C(C)C)cc1`, for which the luminescence activation in assay [2] is -30.3% (inactive).

Regarding `CCn1c(CC(=O)Nc2cccc(Cl)c2Cl)nnc1SCCOc1ccc(OC)cc1`, in assay [2], the luminescence activation is -63.2% (inactive).

With `CCCn1nnnc1NCc1ccc(N2CCCC2)cc1`, the luminescence activation in assay [2] is -14% (inactive).

Regarding `CCn1nnnc1NCc1ccc(N2CCCC2)cc1`, the luminescence activation in assay [2] was -52.4% (inactive).

For the compound `CCCn1nnnc1NCc1ccc(N(CC)CC)cc1`, the luminescence activation in assay [2] was -19.9% (inactive).

Turning to `Cc1ccc2cc3c(NC(=O)c4ccco4)nn(C)c3nc2c1`, in assay [1], the AC40 is 2030 nM.

With `O=c1ncn(-c2cccc(Cl)c2)c2ccccc12`, the luminescence activation in assay [2] was 14.1% (inactive).

As to `COc1ccc(Cl)cc1NC(=O)COC(=O)c1ccc(C)o1`, the luminescence activation in assay [2] is -3.04% (inactive).

Regarding `CCCn1nnnc1NCc1ccccc1Cl`, the luminescence activation in assay [2] is -4.59% (inactive).

The record behind these values is PubChem BioAssay AID624281 (Broad Institute, 2012).
